{"source": "patent US8466203B2", "about": "“Method of stabilizing human eye tissue by reaction with nitrite and related agents such as nitro compounds” (priority 2006, dated 2013)", "key": {"[1]": {"tested_on": "porcine cornea", "experiment": "Thermal shrinkage temperature analysis of porcine corneal strips", "source_text": "(§1) Thermal shrinkage temperature or denaturation temperature (Ts) is a technique that has been used for decades in studying collagen cross-linking. As collagen fibers are progressively heated, a threshold temperature is reached at which point disruption of hydrogen bonding in the collagen molecule triple helix occurs, resulting in unwinding of the triple helices. The denaturation of tertiary protein structure results in a rapid shrinkage of the tissue of up to 80%. This phenomenon can be expressed in various ways including temperature of onset of tissue shrinkage, temperature at maximal tissue shrinkage, and temperature at 50% of maximal tissue shrinkage, for example. In addition, differential scanning calorimetry (DSC) is related to thermal shrinkage temperature analysis and is widely used to evaluate biomaterial cross-linking. Thermal shrinkage temperature is essentially a simplified version of DSC and can be used effectively to screen the cross-linking efficacy of compounds. For the purposes of this study, the onset of shrinkage is considered the Ts and the temperature at which 50% of maximal shrinkage has occurred is T50. Graphs depicting the relationship between degree of shrinkage and temperature indicate differences in degree of cross-linking between groups. Thus, stabilization of collagen fiber structures through non-enzymatic cross-linking increases Ts and T50.\n(§2) This system can perform multiple Ts assays in succession, allowing rapid screening of a number of potential cross-linking agents and conditions. […] Inlet and outlet fittings allow for constant circulation of heated water which is modulated by a digitally controlled water bath equipped with a water pump. The entire box is placed on a digital photo scanner connected to a Windows based computer. Beginning at 50° C. the temperature is raised at a rate of 1° C./min and serial scans are taken at every degree increase in temperature up to 80° C. […] As the tissue shrinks, the images are captured by the scanner. The image files are later analyzed for 2-dimensional area using NIH Image J software and % shrinkage calculations are made using Microsoft Excel for graphing purposes. This method obviates the need for removal of tissue pieces from the water bath with manual micrometer measurements as described by the UVR group (Spoerl, E., et al., 2004).\nUsing this simple, reproducible assay enables the screening of a number of compounds for cross-linking efficacy. This is first performed using porcine eyes because of their low cost. Follow up studies can be performed using human eyes. Porcine eyes are obtained within 6 hrs of sacrifice (Hatfield Meat Packing, Inc., Hatfield Pa.). Eyes showing clear corneas and intact epithelia are chosen for study. […] Each strip is then cross-linked using a nitro agent. The incubation solution is 20% Dextran (T500) [to prevent tissue swelling] in 0.2 M NaH2PO4/Na2HPO4 (pH 7.4) with various concentrations of nitro agent (i.e. 1, 10, and 100 mM). […] The samples are then placed in 2 mL microcentrifuge tubes with 1 mL of incubation solution and reacted in a 34° C. water bath (simulating corneal temperature—Girardin, F., et al., “Relationship between corneal temperature and finger temperature,” Arch. Opthalmol. 1999; 117:166-169) for 24-96 hrs. Following incubation, the samples are evaluated for degree of cross-linking using the Ts assay as described above."}, "[2]": {"tested_on": "porcine cornea", "experiment": "Gross stiffness of porcine corneal strips handled with a forceps", "conditions": "100 mM, pH 7.4, 37° C., 48 hrs", "method": "Fresh porcine corneal strips and corneoscleral complexes obtained within 6 hrs of sacrifice and incubated at 37° C. in buffered solutions (pH 7.4) containing 20% Dextran (T500) and either 100 mM NaNO2 or 100 mM of one each of the specified β-nitro alcohols\n(§3) These images were taken from tissues cross-linked with nitrite and the β-nitro alcohols 2-nitroethanol, 2-nitro-1-propanol, and […], for 48 hrs. […] Fresh porcine corneal strips and corneoscleral complexes were obtained within 6 hrs of sacrifice and incubated at 37° C. in buffered solutions (pH 7.4) containing 20% Dextran (T500) and either 100 mM NaNO2 or 100 mM of one each of the β-nitro alcohols. After 48 hrs, the following images were obtained. […] FIGS. 13 (B and D)"}, "[3]": {"tested_on": "porcine sclera", "experiment": "Thermal shrinkage temperature analysis of porcine scleral strips", "conditions": "for T50 (temperature at 50% of maximal shrinkage) / T50 Δ (change in 50% shrinkage temperature compared to control) / Ti (temperature at 1% absolute shrinkage): pH 7.4, 37° C., 96 hrs", "source_text": "as §1, §2\nUsing this simple, reproducible assay enables the screening of a number of compounds for cross-linking efficacy. This is first performed using porcine eyes because of their low cost. Follow up studies can be performed using human eyes. Porcine eyes are obtained within 6 hrs of sacrifice (Hatfield Meat Packing, Inc., Hatfield Pa.). Eyes showing clear corneas and intact epithelia are chosen for study. […] Each strip is then cross-linked using a nitro agent. […] Opthalmol. 1999; 117:166-169) for 24-96 hrs. Following incubation, the samples are evaluated for degree of cross-linking using the Ts assay as described above.\nFrom the data, Ts curves are generated for each compound and condition studied. Each data point is the average of 3 independent samples."}, "[4]": {"tested_on": "porcine cornea", "experiment": "Yellowing of cross-linked porcine cornea", "conditions": "100 mM concentration", "method": "as §3\nAs such, the effects on corneal light transmission induced by cross-linking with β-nitro alcohols was evaluated using a method adopted from Dillon et al 2004."}}, "note": "Where “and” joins values, the source holds several entries; their conditions need not be identical. Equal values may be shown once.", "data": [{"compound": "O=[N+]([O-])CCO", "note": "[2-nitroethanol]", "values": [{"measurement": "Ts onset shift", "setting": "[1]; 1 mM serially applied over 6 days", "value": "1-2 °C"}, {"measurement": "shift in Ts (in words)", "setting": "[1]; 1 mM, 4 days without replacing the incubation solution", "value": "did not produce a shift in Ts"}, {"measurement": "Ts onset shift", "setting": "[1]; 10 mM", "value": 5, "unit": "°C"}, {"measurement": "Ts onset shift", "setting": "[1]; 100 mM", "value": 8, "unit": "°C"}, {"measurement": "stiffness change when handled with a forceps", "setting": "[2]", "value": "dramatic stiffness change"}, {"measurement": "T50 (temperature at 50% of maximal shrinkage)", "setting": "[3]; 1 mM reagent", "value": 65.7, "unit": "°C"}, {"measurement": "T50 Δ (change in 50% shrinkage temperature compared to control)", "setting": "[3]; 1 mM reagent", "value": 0.4, "unit": "°C"}, {"measurement": "Ti (temperature at 1% absolute shrinkage)", "setting": "[3]; 1 mM reagent", "value": 62.9, "unit": "°C"}, {"measurement": "Ts shift", "setting": "[3]; 1 mM serially applied over 10 days", "value": "2-3 °C"}, {"measurement": "shift in Ts (in words)", "setting": "[3]; 1 mM, 4 days (96 hrs) without replacing the incubation solution", "value": "did not produce a shift in Ts"}, {"measurement": "T50 shift", "setting": "[3]; 1 mM, incubation solution exchanged daily, 6 days", "value": 1.3, "unit": "°C"}, {"measurement": "T50 shift", "setting": "[3]; 1 mM, incubation solution exchanged daily, 10 days", "value": 3.2, "unit": "°C"}, {"measurement": "T50 shift", "setting": "[3]; 1 mM, incubation solution exchanged daily, 14 days", "value": "5.4 °C and 5.6 °C"}, {"measurement": "T50 (temperature at 50% of maximal shrinkage)", "setting": "[3]; 10 mM reagent", "value": 69.8, "unit": "°C"}, {"measurement": "T50 Δ (change in 50% shrinkage temperature compared to control)", "setting": "[3]; 10 mM reagent", "value": 4.5, "unit": "°C"}, {"measurement": "Ti (temperature at 1% absolute shrinkage)", "setting": "[3]; 10 mM reagent", "value": 67.2, "unit": "°C"}, {"measurement": "maximal increase of Ts", "setting": "[3]; 100 mM", "value": 8, "unit": "°C"}, {"measurement": "T50 (temperature at 50% of maximal shrinkage)", "setting": "[3]; 100 mM reagent", "value": 73.7, "unit": "°C"}, {"measurement": "Ti (temperature at 1% absolute shrinkage)", "setting": "[3]; 100 mM reagent", "value": 70.7, "unit": "°C"}, {"measurement": "T50 shift", "setting": "[3]; 100 mM, 24 hrs of incubation", "value": 1.4, "unit": "°C"}, {"measurement": "T50 shift", "setting": "[3]; 100 mM, 48 hrs of incubation", "value": 2.4, "unit": "°C"}, {"measurement": "T50 shift", "setting": "[3]; 100 mM, 72 hrs of incubation", "value": 5.3, "unit": "°C"}, {"measurement": "blocking of the cross-linking effect by equimolar urea", "setting": "[3]; equimolar urea (nitrous acid trapping agent)", "value": "not blocked"}, {"measurement": "yellowing effect", "setting": "[4]", "value": "significant yellowing effect"}]}]}
